Reference: patent publication US20200054633A1 (priority 2017, published 2020)
Where two headings read alike, the source gives them in different places.

Settings: OST placebo, N=74
Excerpt: This study followed a randomized, double-blind, placebo-controlled, parallel-group, multicenter design.
Analysis set for safety: Safety Set included all subjects who received at least 1 dose of study drug.

## O=C(O)[C@H]1C2CCC(CC2)[C@@H]1Nc1nc(-c2c[nH]c3ncc(F)cc23)ncc1F [Compound (1), Pimodivir]
300 mg
  Any Serious TEAE: 0
  Any Serious TEAE at least possibly related to study medication: 0
  Any Severe (Grade 3) TEAE: 2 (2.7%)
  Any TEAE: 32
  Any TEAE at least possibly related to study medication: 9
  Any TEAE leading to a temporary stop of study medication: 2
  Any TEAE leading to permanent stop of study medication: 7
  Any TEAE with fatal outcome: 0
  Grade 3 TEAE: Anaemia: 0
  Grade 3 TEAE: Balance disorder: 0
  Grade 3 TEAE: Blood and lymphatic system disorders: 0
  Grade 3 TEAE: Blood creatine phosphokinase increased: 0
  Grade 3 TEAE: Bronchitis: 1 (1.4%)
  Grade 3 TEAE: Constipation: 0
  Grade 3 TEAE: Diarrhoea: 0
  Grade 3 TEAE: Fatigue: 1 (1.4%)
  Grade 3 TEAE: Gastrointestinal disorders: 0
  Grade 3 TEAE: General disorders and administration site conditions: 1 (1.4%)
  Grade 3 TEAE: Hyperkalaemia: 0
  Grade 3 TEAE: Infections and infestations: 1 (1.4%)
  Grade 3 TEAE: Investigations: 0
  Grade 3 TEAE: Lymphopenia: 0
  Grade 3 TEAE: Metabolism and nutrition disorders: 0
  Grade 3 TEAE: Nausea: 0
  Grade 3 TEAE: Nervous system disorders: 1 (1.4%)
  Grade 3 TEAE: Neutropenia: 0
  Grade 3 TEAE: Neutrophil count decreased: 0
  Grade 3 TEAE: Protein urine present: 0
  Grade 3 TEAE: Syncope: 1 (1.4%)
  Grade 3 TEAE: Thrombocytopenia: 0
  Grade 3 TEAE: Vomiting: 0
  TEAE: Abdominal discomfort: 0 n (%)
  TEAE: Abdominal pain: 0 n (%)
  TEAE: Abdominal pain upper: 0 n (%)
  TEAE: Abdominal tenderness: 0 n (%)
  TEAE: Alanine aminotransferase increased: 1 n (%)
  TEAE: All events: 32 n (%)
  TEAE: Anaemia: 0 n (%)
  TEAE: Aphthous stomatitis: 0 n (%)
  TEAE: Aspartate aminotransferase increased: 1 n (%)
  TEAE: Atrioventricular block first degree: 0 n (%)
  TEAE: Back pain: 1 n (%)
  TEAE: Bacterial vaginosis: 0 n (%)
  TEAE: Balance disorder: 0 n (%)
  TEAE: Blood and lymphatic system disorders: 3 n (%)
  TEAE: Blood bicarbonate decreased: 0 n (%)
  TEAE: Blood bilirubin decreased: 0 n (%)
  TEAE: Blood bilirubin increased: 1 n (%)
  TEAE: Blood creatine phosphokinase increased: 2 n (%)
  TEAE: Blood creatinine increased: 1 n (%)
  TEAE: Blood glucose increased: 1 n (%)
  TEAE: Blood potassium increased: 0 n (%)
  TEAE: Blood pressure diastolic increased: 0 n (%)
  TEAE: Blood urine: 1 n (%)
  TEAE: Bradycardia: 0 n (%)
  TEAE: Bronchitis: 1 n (%)
  TEAE: Cardiac disorders: 1 n (%)
  TEAE: Constipation: 0 n (%)
  TEAE: Contusion: 0 n (%)
  TEAE: Cough: 0 n (%)
  TEAE: Decreased appetite: 0 n (%)
  TEAE: Dehydration: 0 n (%)
  TEAE: Diabetes mellitus: 1 n (%)
  TEAE: Diarrhoea: 5 n (%)
  TEAE: Dizziness: 0 n (%)
  TEAE: Dry mouth: 0 n (%)
  TEAE: Dry skin: 0 n (%)
  TEAE: Dysgeusia: 0 n (%)
  TEAE: Dyspepsia: 1 n (%)
  TEAE: Dyspnoea: 1 n (%)
  TEAE: Dysuria: 0 n (%)
  TEAE: Ear and labyrinth disorders: 0 n (%)
  TEAE: Ear discomfort: 0 n (%)
  TEAE: Ecchymosis: 0 n (%)
  TEAE: Electrocardiogram ST segment depression: 0 n (%)
  TEAE: Enteritis: 0 n (%)
  TEAE: Fatigue: 1 n (%)
  TEAE: Fungal infection: 0 n (%)
  TEAE: Gamma-glutamyltransferase increased: 0 n (%)
  TEAE: Gastrointestinal disorders: 10 n (%)
  TEAE: General disorders and administration site conditions: 2 n (%)
  TEAE: Glomerular filtration rate decreased: 4 n (%)
  TEAE: Gout: 1 n (%)
  TEAE: HIV antibody positive: 0 n (%)
  TEAE: HIV test positive: 0 n (%)
  TEAE: Haematuria: 1 n (%)
  TEAE: Haemoglobin decreased: 2 n (%)
  TEAE: Haemoglobin increased: 0 n (%)
  TEAE: Headache: 2 n (%)
  TEAE: Hepatic enzyme increased: 0 n (%)
  TEAE: Hepatitis C: 1 n (%)
  TEAE: Herpes simplex: 0 n (%)
  TEAE: Hyperglycaemia: 0 n (%)
  TEAE: Hyperhidrosis: 0 n (%)
  TEAE: Hyperkalaemia: 0 n (%)
  TEAE: Hyperproteinaemia: 1 n (%)
  TEAE: Hypertension: 0 n (%)
  TEAE: Hyperuricaemia: 0 n (%)
  TEAE: Hypokalaemia: 0 n (%)
  TEAE: Hyponatraemia: 1 n (%)
  TEAE: Hypophosphataemia: 2 n (%)
  TEAE: Hypothermia: 1 n (%)
  TEAE: Increased appetite: 0 n (%)
  TEAE: Infections and infestations: 5 n (%)
  TEAE: Injury, poisoning and procedural complications: 0 n (%)
  TEAE: Insomnia: 2 n (%)
  TEAE: Investigations: 8 n (%)
  TEAE: Irritability: 0 n (%)
  TEAE: Labyrinthitis: 0 n (%)
  TEAE: Leukopenia: 0 n (%)
  TEAE: Lymph node pain: 1 n (%)
  TEAE: Lymphadenopathy: 1 n (%)
  TEAE: Lymphopenia: 0 n (%)
  TEAE: Metabolism and nutrition disorders: 4 n (%)
  TEAE: Micturition urgency: 0 n (%)
  TEAE: Middle ear effusion: 0 n (%)
  TEAE: Migraine: 0 n (%)
  TEAE: Muscle spasms: 0 n (%)
  TEAE: Musculoskeletal and connective tissue disorders: 2 n (%)
  TEAE: Musculoskeletal chest pain: 1 n (%)
  TEAE: Myalgia: 0 n (%)
  TEAE: Myocarditis: 0 n (%)
  TEAE: Nasal congestion: 0 n (%)
  TEAE: Nausea: 3 n (%)
  TEAE: Nephropathy: 0 n (%)
  TEAE: Nervous system disorders: 4 n (%)
  TEAE: Neutropenia: 0 n (%)
  TEAE: Neutrophil count decreased: 1 n (%)
  TEAE: Oedema peripheral: 0 n (%)
  TEAE: Oral herpes: 0 n (%)
  TEAE: Otitis media: 0 n (%)
  TEAE: Paraesthesia: 1 n (%)
  TEAE: Percussion test abnormal: 1 n (%)
  TEAE: Petechiae: 0 n (%)
  TEAE: Pharyngitis streptococcal: 0 n (%)
  TEAE: Pneumonia chlamydial: 0 n (%)
  TEAE: Protein urine: 1 n (%)
  TEAE: Protein urine present: 0 n (%)
  TEAE: Proteinuria: 3 n (%)
  TEAE: Pruritus: 0 n (%)
  TEAE: Psychiatric disorders: 3 n (%)
  TEAE: Rash: 0 n (%)
  TEAE: Red blood cells urine: 1 n (%)
  TEAE: Renal and urinary disorders: 6 n (%)
  TEAE: Renal failure: 1 n (%)
  TEAE: Renal failure chronic: 1 n (%)
  TEAE: Renal impairment: 1 n (%)
  TEAE: Respiratory, thoracic and mediastinal disorders: 1 n (%)
  TEAE: Rhonchi: 1 n (%)
  TEAE: Sensation of foreign body: 0 n (%)
  TEAE: Sinus bradycardia: 0 n (%)
  TEAE: Sinus congestion: 0 n (%)
  TEAE: Sinus tachycardia: 1 n (%)
  TEAE: Sinusitis: 3 n (%)
  TEAE: Skin and subcutaneous tissue disorders: 0 n (%)
  TEAE: Sleep disorder: 0 n (%)
  TEAE: Sleep terror: 1 n (%)
  TEAE: Syncope: 1 n (%)
  TEAE: Tachycardia: 0 n (%)
  TEAE: Thrombocytopenia: 1 n (%)
  TEAE: Tinnitus: 0 n (%)
  TEAE: Tongue discolouration: 1 n (%)
  TEAE: Tremor: 0 n (%)
  TEAE: Upper respiratory tract infection: 0 n (%)
  TEAE: Urinary tract infection: 0 n (%)
  TEAE: Urine ketone body present: 1 n (%)
  TEAE: Vascular disorders: 0 n (%)
  TEAE: Vertigo: 0 n (%)
  TEAE: Vomiting: 1 n (%)
  TEAE: Wheezing: 1 n (%)
  TEAE: White blood cell count decreased: 0 n (%)
  Worst grade 1 or 2 TEAE: 30
  Worst grade 3 TEAE: 2
  Worst grade 3 or 4 TEAE: 2
  Worst grade 4 TEAE: 0
600 mg
  Any Serious TEAE: 1 (1.4%)
  Any Serious TEAE at least possibly related to study medication: 0
  Any Severe (Grade 3) TEAE: 5 (6.8%)
